Data on four compounds can be found in patent publication US4927835A, “Acylphenol derivatives, useful as anti-inflammatory agents and pain suppressants” (priority 1988, dated 1990).

A short description of series [1]: Inhibitory action to carrageenin edema (right hind paw). Type of series: in vivo, male rats (SD strain). Conditions: for ED30: read-out: (1) ED30, carrageenin edema. As for the experimental part:
Seven male rats (SD strain; 6 weeks of age) were used in a group. The test compound was administered per os and, after one hour, 0.1 ml of 0.5% λ-carrageenin solution was injected subcutaneously into the right hind paw. After three hours, the volume of the right hind paw was measured with a plethysmometer (UGO-BASILE). The degree of swelling was calculated by subtracting the volume before the carrageenin from the post injection volume.

The nature of series [2]: Inhibitory action to acetic acid writhing. Type of series: in vivo, male mice (ddY strain). Conditions: for ED50: po, read-out: (2) ED50, acetic acid writhing. As for the experimental part: Six male mice (ddY strain; five weeks of age) were used in a group. The test compound was administered per os and, after one hour, 0.6% acetic acid was intraperitoneally injected at the dose of 0.1 ml/10 g and the total writhings within 20 minutes thereafter were counted. By comparing the number of writhings of the drug-treated group to that of the control group, the inhibitory rate was obtained and an ED50 value was calculated.
Background: An intraperitoneal irritant provokes the stretching counted in writhing tests.

For series [3] the following is noted: values given in literature; cited from earlier work.
Series [4] in a line: Inhibitory action to pain by heat stimulation (tail flick). The series is classed as in vivo, male mice (ddY strain). Conditions: mouse, per os; for ED50: po, tail flick at 5, 15, 30, 45 and 60 minutes, read-out: (3) ED50, pain by heat stimulation. As for the experimental part: Ten male mice (ddY strain; five weeks of age) were used in a group. Radiated heat (250 watts; 4 cm distance from the heat source) was applied to the end of the tail of the mice. […] The test compound was administered per os and the time of appearance of the tail flick after 5, 15, 30, 45 and 60 minutes was measured. […] The maximum positive rate among the analgesically positive rates in each measuring time was defined as the analgesically positive rate at that dose and an ED50 value was calculated therefrom.

The conditions of series [5]: Agents and Actions, vol. 12, page 5, 1982; cited from earlier work.
A short description of series [6]: Stomach disorder (ulcer generation). Conditions: rat, in vivo, po; for selectivity ratio: ratio UD50/ED50, read-out: Safety Region (UD50 /ED50). Set-up: species or system male rats (SD strain). As for the experimental part:
Ten male rats (SD strain; five weeks of age) were used in a group. The test compound dissolved or suspended in physiological saline solution was administered to them per os. The animals were than fasted for 17 hours, and 0.5 ml of 5% pontamine sky blue solution was injected intravenously and, after 10 minutes, they were sacrificed with ether. The stomach was removed from the animals, and about 8 ml of 5% formaline solution was injected into the stomach to provide a semifixing. The presence of the […] was checked using a stereoscopic microscope. Rats in which even one ulcer was observed was judged to be positive in ulcer generation and a UD50 value was calculated by a provit method.

Series [7] is described as follows: Analgesic, anti-inflammatory and anti-pyretic activity, summary statement. Conditions: from the data in Table 1. Type of series: in vivo.
The nature of series [8]: Acute toxicity. Set-up: species or system male rats (SD strain). Conditions: in vivo, po; rat, per os; 7 days; provit method; read-out: (5) LD50, acute toxicity. As for the experimental part:
Test data showing the activity and superiority for compounds representative of those of the present invention is set forth below. In the tests, a representative compound of the present invention, namely 3-(1,1-Dimethylethyl)-4-hydroxy-5-[N-(2-hydroxyethyl)-N-methylaminomethyl]phenyl-2-thienyl ketone, the compound described in Example 4 (the "test compound"), was dissolved or suspended in 0.5% methylcellulose (MC) and administered as described.
Four male rats (SD strain; six weeks of age) were used in a group. The test compound was given per os and, after 7 days, the […] were monitored for life and an LD50 value was calculated by a provit method.

[9] abbreviates: rat, per os, carrageenin 1 hour after compound, paw volume after three hours.
The mark [10] stands for this setting: mouse, per os, 0.6% acetic acid i.p. after one hour, writhings within 20 minutes.

Where two headings read alike, the source gives them in different places.

As for `CC(C)(C)c1cc(C(=O)c2cccs2)cc(C(C)(C)C)c1O` [Example R-830, 3,5-di-tert-butyl-4-hydroxy-phenyl 2-thienyl ketone], the ED30 in series [1] (setting [9]) was found to be 5.6 mg/kg. For the same compound, the ED50 in series [2] (setting [10]) was found to be 22.4 mg/kg. Moreover, the “(5) LD50, acute toxicity” value in series [3] is given as 1625 mg/kg. The “(3) action on pain by heat stimulation (no ED50)” value in series [4] (at 500 mg/kg) is “no action at 500 mg/kg”. In addition, the “inhibitory action against carrageenin-induced edema, in words” value in series [5] is reported as “inhibitory action against carrageenin-induced edema”. In series [6], the TD50 is 11.8 mg/kg and the selectivity ratio was determined as 2.1.
On to `CN(CCO)Cc1cc(C(=O)c2cccs2)cc(C(C)(C)C)c1O` [Example 4, 3-(1,1-Dimethylethyl)-4-hydroxy-5-[N-(2-hydroxyethyl)-N-methylaminomethyl]phenyl 2-thienyl ketone], for which the “inhibitory action to carrageenin edema, in words” value in series [1] (rat, per os) was “inhibitory action to carrageenin edema”. Besides, in series [1] (setting [9]), the ED30 came out at 9.8 mg/kg. Besides, the “analgesic and anti-inflammatory activity, in words” value in series [7] was “strong analgesic and anti-inflammatory activity”. The “analgesic activity, inflammatory pain (acetic acid writhing), compared with codeine” value in series [2] (mouse, per os) is “analgesic activity as strong as codeine”. Moreover, in series [2] (setting [10]), the ED50 amounted to 16.4 mg/kg. Further, in series [4], the “analgesic activity, non-inflammatory pain (heat stimulation), compared with codeine” value was “analgesic activity as strong as codeine” and the ED50 worked out at 47 mg/kg. Also, in series [6], the TD50 amounted to 146 mg/kg and the selectivity ratio stood at 14.9. Besides, the LD50 at 168 h in series [8] amounted to 1000 mg/kg.
Turning to `O=C(Cn1c(=O)sc2ccc(Cl)cc21)N1CCN(CCO)CC1` [Thiaramide], the ED30 in series [1] (setting [9]) came out at 112 mg/kg. Moreover, in series [2] (setting [10]), the ED50 was 27.3 mg/kg. In series [3], the “(5) LD50, acute toxicity” value is listed as 4700 mg/kg. Also, the ED50 in series [4] was determined as 108 mg/kg. In series [6], the TD50 is 278 mg/kg and the selectivity ratio is 2.5.
Regarding `COc1ccc2c(c1)c(CC(=O)O)c(C)n2C(=O)c1ccc(Cl)cc1` [Indomethacin], in series [1] (Rattus norvegicus), the ED30 stood at 0.8 mg/kg. Besides, in series [2] (Mus musculus), the ED50 turned out to be 2.1 mg/kg. Besides, the “(3) action on pain by heat stimulation (no ED50)” value in series [4] (at 20 mg/kg) is given as “no action at 20 mg/kg”. Besides, the TD50 in series [6] (per os, fasted 17 hours, provit method, read-out: (4) UD50, stomach ulcer generation) was found to be 2.4 mg/kg. Besides, the selectivity ratio in series [6] amounted to 3.

By ED50 is commonly meant the midpoint of the dose-response relation. By LD50 is commonly meant the dose at which mortality reaches 50%.
